Measured values reported in ChEMBL document CHEMBL3507680, “University of Dundee, Gates Library screen for HepG2 cell viability”.

Test: Human HepG2 cell viability assay in 384 well format
Format: toxicity, cell-based
Parameters: dose 125 nL, time 70.5 hour; cytotoxicity at 70.5 h: concentration not given beside the values
Conditions: HepG2 cells, read-out: Inhibition

Structure (SMILES)	cytotoxicity at 70.5 h
CCN(C)C[C@@H]1CN(S(=O)(=O)c2cccc(C#N)c2)C[C@@H]1CO	-5.18%
CCC(NC(=O)CC(F)(F)F)c1ccccc1OCC(=O)N1CCCC1 (stereo not given)	-7.99%
Cn1cc(CCC(=O)N2CCCC(n3cncn3)C2)cn1 (stereo not given)	-0.386%
CC(C)(C)c1n[nH]cc1CNC1CCC(C(F)(F)F)CC1 (stereo not given)	-0.127%
Cc1cc(C)c(CNC(=O)C(C)Oc2ccccc2F)c(=O)[nH]1 (stereo not given)	2.57%
CC(C)CCC(=O)Nc1ncn(CC(=O)N2CCCCCC2)n1	-2.61%
O=c1c2cccc(C(F)(F)F)c2ncn1C1CCNC1 (stereo not given)	-13.6%
CCCNC(=O)C(C)n1cc(Br)cn1 (stereo not given)	-11.8%
Cc1nccn1-c1ccc(CNS(=O)(=O)N2CCC(C)CC2)cn1	25.9%
CC(=O)c1ccc(OCC(C)O)cc1O (stereo not given)	5.87%
O=S1(=O)COCCN1CCOc1ccc(F)cc1	-5.2%
CN1[C@H](CN2CCCC2)C[C@@H]2CN(C(=O)c3cnccn3)CC[C@@H]21	-4.55%
COc1c(CNC2CCOc3c(Cl)cccc32)c(C(C)C)nn1C (stereo not given)	11.4%
O=S(=O)(C1CC1)N1C[C@H]2CCC[C@@]2(COCc2ccccn2)C1	-14.3%
FC(F)(F)c1ccnc(N2CCCCCC2)c1	-10.6%
Cc1nc(C)c(C(=O)NCCNC(=O)c2ccc(F)cc2F)s1	-6.45%
Cc1csc(C2(NCc3nc(-c4ccco4)no3)CCCC2)n1	-12.8%
Cc1ccc(-n2nnc(C(=O)Nc3cc(C)nn3C)c2C2CC2)cc1	0.219%
COC(=O)c1cccc(C(=O)N(C)Cc2ccsc2)c1	22.5%
O=C(CCN1CCCC1c1ccccn1)N1CCc2ccccc2C1 (stereo not given)	-16.1%
CC(C)c1nn(C)c(N(C)C)c1CNCc1ccc2c(c1)OCO2	2.49%
O=C(c1ccco1)N1CC[C@@H]2CN(C3CCOCC3)CCO[C@@H]2C1	0.698%
Cc1cnc(CN(C)C2CCN(CCCc3cnn(C)c3)C2)o1 (stereo not given)	-8%

Structure (SMILES)	cytotoxicity at 70.5 h
Cc1c(C(C)Nc2ncnc3sccc23)cnn1C (stereo not given)	-8.04%
CN(Cc1cc(-c2cccnc2)no1)C(=O)c1cccn1C	0.783%
Cc1ccc(CNC(=O)c2cc(C)n(C)n2)o1	-8.67%
C[C@@H](NC(=O)c1cccnc1)c1onc(-c2ccccc2)c1C(=O)O	-4.96%
COc1ccc(CN2C[C@@H]3CN(Cc4ccoc4)C[C@@H]3C2=O)cc1	-6.31%
Cc1nc(Nc2cnccn2)cc(C2CCCN2C2CCOCC2)n1 (stereo not given)	-5.63%
CCCN1CCC(N2CCC(Cn3cc(CC(C)O)nn3)CC2)CC1 (stereo not given)	-6.23%
Cc1nc(-c2ccc(C(=O)O)cc2)cc(C2CCN(C(C)C)C2)n1 (stereo not given)	-9.52%
CN(CC(O)CO)c1nc(-c2cccnc2)nc2c1CCNC2 (stereo not given)	-17.2%
O=C(C[C@@H]1COC[C@H]2CN(CC3CC3)C[C@@H]12)N1CCCCO1	5.39%
CCNc1nnc(SCC(=O)N2CCN(Cc3ccc(Cl)s3)CC2)s1	-0.322%
CCCOCC1CCN(C(=O)Cn2ncc(N3CCCC3)cc2=O)C1 (stereo not given)	26.8%
Cn1ncc2ccc(C3CCCN(C(=O)Cc4cccs4)C3)nc21 (stereo not given)	13.1%
COC(CNC(=O)c1ccoc1)c1cccc(Cl)c1 (stereo not given)	-5.07%
CC(=O)N1CCCCC1c1nnc2n1CCNC2 (stereo not given)	17.5%
N#Cc1ccccc1N1CCN(CCC(=O)N2CCOCC2)CC1	-3.68%
CC(=O)NCCc1ccc(S(=O)(=O)N(C)C(C)CC(C)C)s1 (stereo not given)	-7.26%
COC(=O)c1ccc(C2CC(=O)Oc3cc(C)[nH]c(=O)c32)cc1 (stereo not given)	4.58%
CC(C)CN1C[C@@H]2OCC(=O)N(c3ccccc3)[C@@H]2C1	-15.4%
Cc1ncsc1C(=O)NCCNc1ncccn1	13.7%
CN1CCO[C@@H]2CN(S(=O)(=O)c3cccs3)CC[C@@H]2C1	-9.31%
CCn1ncc2c1CN(C(=O)c1cscn1)CC2COC (stereo not given)	-7.98%
COc1ccc(Cl)cc1CN(C)CC(=O)/N=c1\cc[nH]n1C(C)C1CC1 (stereo not given)	20.8%

Structure (SMILES)	cytotoxicity at 70.5 h
Cc1nc(C2CN(C)CCO2)cc(N2CCC(C(N)=O)CC2)n1 (stereo not given)	-10.6%
O=C(NCc1cccc(C(F)(F)F)c1)C(c1cccnc1)N1CCCC1 (stereo not given)	-4.98%
CCC(NCc1ncc[nH]1)c1nc(C(F)(F)F)cs1 (stereo not given)	-4.3%
COc1c(C)cnc(CN2CCn3c(C)nnc3C2)c1C	-3.41%
CC(=O)N1CCN(C(=O)c2ccc(-c3cccc(C)c3)[nH]c2=O)CC1	-2.2%
Cn1cc(NC(=O)N2CCCC2c2ccccn2)ccc1=O (stereo not given)	-5.4%
CCC[C@@H]1CN(C(=O)c2ccccc2C(C)=O)C[C@H]1N(C)C	7.99%
CC(C)N(C)C(=O)C1CCN(Cc2cnc3ccccn23)CC1	-5.16%
COc1ccc(F)c(CN2CCCC3(CCN(C(=O)CSC)C3)C2)c1 (stereo not given)	8.81%
COCc1nn(C(C)C)c2c1CCN(Cc1ccccn1)C2	-3.77%
Cc1cc(O)c(OCC(=O)/N=c2\[nH]cc(C)s2)cn1	-21%
Cc1noc(C)c1CN1C[C@@H](C(=O)O)[C@H](C(C)C)C1	-10%
Cc1ccoc1C(=O)N1CCCc2c(c(=O)n(C)n2C)C1	11.9%
O=S(=O)(c1ccccc1)N1CCC2(CCCN2Cc2ccccc2Cl)C1 (stereo not given)	22.5%
COc1ccc(C(C)NS(=O)(=O)c2ccc3c(c2)CCC(=O)N3)cc1F (stereo not given)	12.7%
COc1cccc(CC(C)NCC(=O)Nc2ccccc2C)c1 (stereo not given)	-0.681%
CCn1cc(CN(C)S(=O)(=O)c2ccccc2)cn1	-6.94%
COCC(=O)N1CCC2(CC1)COCCN2CCN(C)C	-19.5%
Cc1noc(C2CN(Cc3ccc4c(c3)CCO4)C2)n1	-11.7%
CCOCc1nc2c(c(NCc3cc(C)on3)n1)CCN(C(C)=O)CC2	-7.96%
Cc1nnsc1C(=O)N1CCCC(n2nnc3cc(F)ccc32)C1 (stereo not given)	-5.58%
Cc1nc(N2CCCC2)nc(C)c1NC(=O)c1ccco1	-1.46%
CC(C)N1CCCCC1c1cc(CO)[nH]n1 (stereo not given)	-3.81%

Structure (SMILES)	cytotoxicity at 70.5 h
CCNC(=O)c1ccc2c(c1)nc1n2CCN(Cc2ccco2)C1	-16%
Cn1ccc2cc(CC3COCCN(C(=O)c4ccccn4)C3)ccc21 (stereo not given)	-6.94%
Cc1cc(NC(=O)CN2CCc3cnc(C(C)C)nc3C2)on1	-1.61%
Cn1ncc2c(N3CCS(=O)(=O)CC3)nc(C3CCCC3)nc21	-6%
CCOc1nnc(CN(CC)CC(=O)NC(C)(C)C)s1	10.3%
COCCN1CCN(CCCc2nnnn2-c2ccccc2)CC1	-14.2%
Cn1cc(C(=O)Nc2ccc(CN3CCOCC3)cn2)cn1	-4.82%
CC(C)c1cccc(NC(=O)N2CC(N(C)C)C2)c1	-0.462%
CN(Cc1ccco1)[C@@H]1CN(Cc2ccc(F)cc2)C[C@@H]2CCCO[C@@H]21	2.25%
CCc1nc(CN2CCCN(c3ncnc4sccc34)CC2)no1	16.3%
CCc1nc(C2CCCN2CC(=O)N2CCc3ccccc32)no1 (stereo not given)	-5.32%
Cc1ccc(OCCN(C)Cc2nccn2C)c(C)c1	-9.5%
CN(Cc1cc(C2CC2)on1)C(=O)CN1CC(c2ccccc2)CC1=O (stereo not given)	-8.22%
c1ccc(CCn2cc(-c3nc(CN4CCOCC4)no3)nn2)cc1	-6.91%
Cn1nccc1-c1ccc2nc(C3CCN(CC4CC4)CC3)nn2c1	-12.2%
CNC(=O)NC(C)c1c(F)cccc1Cl (stereo not given)	-107%
CSCC(=O)Nc1ncc(I)cc1C	11.6%
COc1ccc(CNC(=O)NC(C)Cn2cccn2)cc1O (stereo not given)	-16.1%
Cc1cc2c(c(-c3cnccn3)c1)OC(CN)C2 (stereo not given)	-6.44%
CC(C)OCCN1CCN(C(=O)c2cccc(CC#N)c2)CC1	-12%
COc1ccccc1N1CCCC(Nc2ncccn2)C1=O (stereo not given)	-3.79%
CCN1CCCC1Cn1ccc2c(OC)c(OC)ccc2c1=O (stereo not given)	-6.22%
CNS(=O)(=O)c1ccc(CN2CCCN(c3ccccc3)CC2)cc1	18%

Structure (SMILES)	cytotoxicity at 70.5 h
Cc1nc(C)n(CC2CCCN(c3ncnc4ccsc34)C2)n1 (stereo not given)	26.2%
CN1CCCC(CCC(=O)N2CCc3c(nc(CC4CC4)[nH]c3=O)C2)C1 (stereo not given)	-4.3%
CC(C)(C)c1cc(NC(=O)C2CCCO2)n(-c2ccccn2)n1 (stereo not given)	-2.77%
Cn1ccc(CS(=O)(=O)Cc2ccccc2)cc1=O	-12.9%
Cc1ccc(C(=O)NCCCNS(C)(=O)=O)cc1C	-9.61%
O=C1CCC(c2nc(C3CCNCC3)no2)N1 (stereo not given)	-6.87%
Cc1csc(Nc2cc(C3CCCCN3C)nc(C)n2)n1 (stereo not given)	0.668%
CC(C)CN(Cc1ccccn1)Cc1ccccc1OCC(=O)O	-9.42%
CC(C)c1nc(CN(C)C(=O)C2CC(=O)N(Cc3ccncc3)C2)cs1 (stereo not given)	5.05%
Cc1nc([C@H]2C[C@H]3CN(C(=O)c4ccoc4C)CC[C@@H]3O2)no1	-7.31%
CCOc1ccc(C(=O)CCC(=O)N(C)Cc2noc(C)n2)cc1C	-6.08%
COc1cc(NC(=O)NC2CCOCC2)ccc1N1CCOC1=O	6.14%
COc1ccc(-c2cnc3c(c2)CN(C2CC2)C(=O)CCN3)cc1	-4.59%
CC(=O)N1CCN(C(=O)CN(C)c2ccc(Cl)cn2)CC1	-10.3%
O=C(NCC1CC[C@@]2(CNCCOC2)O1)c1cccnc1 (stereo not given in full)	-2.12%
COc1ccc(C)cc1-n1ccc(C(=O)NCC2CCCOC2)n1 (stereo not given)	-11.7%
CN(C)Cc1cc(C2CCCCN2S(=O)(=O)Cc2ccccc2)nn1C (stereo not given)	-14.1%
CC1CCCCN1C(=O)c1coc(COc2cccc3cnccc23)n1 (stereo not given)	-6.78%
Cc1nc(NC(=O)NCCCN2CCC(C(N)=O)CC2)sc1C	-19.5%
CCOCCN1CCN(CC(=O)NC2(C#N)CCCC2)CC1C (stereo not given)	10.7%
COCC(=O)NCC1CCN(Cc2ccsc2)CC1	33.7%
COc1ccccc1CC(=O)N1C[C@H]2CC[C@@H]1CN(Cc1cscn1)C2	-12.1%
Cn1ccc(CN2CCCC23CCN(Cc2cccc(F)c2)CC3)n1	0.351%
